Measurements from ChEMBL document CHEMBL1201862, “PubChem BioAssay data set” (2004).
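Five concentrations, 48 hours, 96-well plates. The concentration for 50% growth inhibition is given as GI50.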 Active and inactive are the calls of the source. Rule as the data show it: active = GI50 up to about 1.1 µM and inactive = higher.

Tests used:
Assay in all cases: inhibition of tumour cell growth, NCI panel, 48 h
786-0 = test system: 786-0
A549 = test system: A549
ACHN = test system: ACHN
Hs-578T = test system: Hs-578T
K562 = test system: K562
MDA-MB-231 = test system: MDA-MB-231
MDA-N = test system: MDA-N
NCI-H23 = test system: NCI-H23
NCI-H460 = test system: NCI-H460
NCI-H522 = test system: NCI-H522
OVCAR-3 = test system: OVCAR-3
PC-3 = test system: PC-3
SK-MEL-28 = test system: SK-MEL-28
SK-MEL-5 = test system: SK-MEL-5
SN12C = test system: SN12C
SNB-75 = test system: SNB-75
TK-10 = test system: TK-10
UACC-257 = test system: UACC-257
A498 = test system: A498

Measured: GI50

Cc1n[nH]/c(=N\S(=O)(=O)c2ccc(/N=N/c3c(O)c(C(=O)O)cc4ccccc34)cc2)s1
inactive: 786-0 > 100 µM | A549 > 100 µM | ACHN > 100 µM | Hs-578T > 100 µM | K562 > 100 µM | MDA-MB-231 > 100 µM | MDA-N > 100 µM | NCI-H23 > 100 µM | NCI-H460 > 100 µM | NCI-H522 > 100 µM | OVCAR-3 > 100 µM | PC-3 > 100 µM | SK-MEL-28 > 100 µM | SK-MEL-5 > 100 µM | SN12C > 100 µM | SNB-75 > 100 µM | TK-10 > 100 µM | UACC-257 > 100 µM

CC1(C)OC(=O)C(C)(C)C(=O)O1
inactive: 786-0 > 100 µM | A549 > 100 µM | ACHN > 100 µM | Hs-578T > 100 µM | K562 > 100 µM | MDA-MB-231 > 100 µM | MDA-N > 100 µM | NCI-H23 > 100 µM | NCI-H460 > 100 µM | NCI-H522 > 100 µM | PC-3 > 100 µM | SK-MEL-28 > 100 µM | SK-MEL-5 > 100 µM | SN12C > 100 µM | SNB-75 > 100 µM | TK-10 > 100 µM | UACC-257 > 100 µM

Cc1cccc(NC(=O)CCl)c1
inactive: 786-0 3.67 µM | A498 > 10 µM | A549 > 10 µM | ACHN > 10 µM | Hs-578T > 10 µM | K562 6.11 µM | MDA-MB-231 5.93 µM | MDA-N > 10 µM | NCI-H23 4.26 µM | NCI-H460 > 10 µM | NCI-H522 1.95 µM | OVCAR-3 6.4 µM | PC-3 > 10 µM | SK-MEL-28 > 10 µM | SK-MEL-5 7.71 µM | SN12C 7.67 µM | TK-10 > 10 µM | UACC-257 > 10 µM

Cn1c2ccccc2c2c3c(c4c5ccccc5n(C)c4c21)C(=O)N(c1ccccc1)C3=O
inactive: 786-0 > 100 µM | A498 > 100 µM | A549 > 100 µM | ACHN > 100 µM | K562 > 100 µM | MDA-MB-231 > 100 µM | MDA-N > 100 µM | NCI-H23 > 100 µM | NCI-H460 > 100 µM | NCI-H522 44.4 µM | OVCAR-3 > 100 µM | PC-3 > 100 µM | SK-MEL-28 > 100 µM | SK-MEL-5 > 100 µM | SN12C > 100 µM | SNB-75 > 100 µM | TK-10 > 100 µM | UACC-257 > 100 µM

CC(=O)OCC(=O)[C@@]12OC(C)(C)O[C@@H]1C[C@H]1[C@@H]3CC=C4C[C@@H](O)CC[C@]4(C)[C@H]3CC[C@@]12C
inactive: 786-0 41.4 µM | A498 32.1 µM | A549 > 100 µM | ACHN 92.9 µM | Hs-578T 22.4 µM | K562 > 100 µM | MDA-MB-231 61.5 µM | MDA-N > 100 µM | NCI-H23 57.7 µM | NCI-H522 57.9 µM | OVCAR-3 > 100 µM | PC-3 > 100 µM | SK-MEL-28 > 100 µM | SK-MEL-5 > 100 µM | SN12C 43.9 µM | SNB-75 13.9 µM | TK-10 40.3 µM | UACC-257 > 100 µM

CCc1n[nH]c(=O)n1N1C(=O)C2CCCCC2C1=O (configuration not stated)
inactive: 786-0 > 100 µM | A498 > 100 µM | A549 > 100 µM | ACHN > 100 µM | Hs-578T > 100 µM | K562 > 100 µM | MDA-MB-231 > 100 µM | MDA-N > 100 µM | NCI-H23 > 100 µM | NCI-H522 > 100 µM | OVCAR-3 > 100 µM | PC-3 > 100 µM | SK-MEL-28 > 100 µM | SK-MEL-5 > 100 µM | SN12C > 100 µM | SNB-75 > 100 µM | TK-10 > 100 µM | UACC-257 > 100 µM

CC[C@]12C=CCN3CC[C@@]4(c5cc(Br)c(OC)cc5N(C)[C@H]4[C@@](O)(C(=O)NC(Cc4c[nH]c5ccccc45)C(=O)OC)[C@@H]1O)[C@@H]32 (some centres not stated)
inactive: 786-0 45.5 µM | A549 11.8 µM | ACHN 17.5 µM | Hs-578T 58.3 µM | K562 5.37 µM | MDA-MB-231 30.6 µM | MDA-N 23.3 µM | NCI-H23 45.1 µM | NCI-H522 8.83 µM | OVCAR-3 9.16 µM | PC-3 8.2 µM | SK-MEL-28 92.9 µM | SK-MEL-5 7.31 µM | SN12C 29.4 µM | SNB-75 > 100 µM

CCOC(=O)CNC(=O)C(CSC(=O)N(O)c1ccc(Cl)cc1)NC(=O)CCC(N)C(=O)OCC (configuration not stated)
inactive: 786-0 > 50 µM | A549 > 50 µM | ACHN > 50 µM | Hs-578T 1.9 µM | K562 11.8 µM | MDA-MB-231 21 µM | MDA-N 36 µM | NCI-H23 > 50 µM | NCI-H460 > 50 µM | OVCAR-3 > 50 µM | PC-3 > 50 µM | SK-MEL-28 24.8 µM | SK-MEL-5 > 50 µM | SN12C > 50 µM | UACC-257 > 50 µM
